{
  "source": "paper PMC11836537",
  "about": "“An isofagomine analogue with an amidine group in the 1,6-position” (Royal Society Open Science, 2025)",
  "key": {"[1]": {"target": "T1, β-galactosidase (Aspergillus oryzae, UniProt Q2UCU3)", "T1 sequence (Q2UCU3 19-1005)": "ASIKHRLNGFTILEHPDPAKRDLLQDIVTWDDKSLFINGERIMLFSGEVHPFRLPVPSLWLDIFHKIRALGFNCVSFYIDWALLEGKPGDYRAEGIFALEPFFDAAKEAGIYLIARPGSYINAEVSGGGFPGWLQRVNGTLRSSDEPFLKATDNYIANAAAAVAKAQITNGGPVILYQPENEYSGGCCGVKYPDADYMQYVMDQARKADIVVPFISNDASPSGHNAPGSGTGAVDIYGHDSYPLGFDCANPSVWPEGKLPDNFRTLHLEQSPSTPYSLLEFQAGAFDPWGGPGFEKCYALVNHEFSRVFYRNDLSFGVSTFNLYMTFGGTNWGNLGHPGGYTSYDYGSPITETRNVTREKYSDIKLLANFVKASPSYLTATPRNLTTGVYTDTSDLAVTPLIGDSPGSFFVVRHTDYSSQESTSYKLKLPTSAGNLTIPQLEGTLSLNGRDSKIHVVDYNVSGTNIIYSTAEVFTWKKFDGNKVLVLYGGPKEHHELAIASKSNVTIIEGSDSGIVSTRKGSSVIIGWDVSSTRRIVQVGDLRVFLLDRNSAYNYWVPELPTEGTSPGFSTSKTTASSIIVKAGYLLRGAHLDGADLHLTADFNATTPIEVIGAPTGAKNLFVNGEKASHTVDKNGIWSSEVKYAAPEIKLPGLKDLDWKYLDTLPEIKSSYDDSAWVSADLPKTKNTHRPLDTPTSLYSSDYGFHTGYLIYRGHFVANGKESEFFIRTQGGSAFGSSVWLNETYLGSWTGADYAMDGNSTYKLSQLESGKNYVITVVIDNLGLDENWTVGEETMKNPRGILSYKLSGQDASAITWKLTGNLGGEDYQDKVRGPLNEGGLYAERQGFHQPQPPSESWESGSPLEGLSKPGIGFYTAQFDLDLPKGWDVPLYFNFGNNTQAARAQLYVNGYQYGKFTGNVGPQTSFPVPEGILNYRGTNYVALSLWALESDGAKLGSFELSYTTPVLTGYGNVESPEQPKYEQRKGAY", "settings": "β-galactosidase from Aspergillus oryzae, pH 6.8; cited from earlier work"}, "[2]": {"target": "T2, α-mannosidase (Canavalia ensiformis, UniProt C0HJB3)", "T2 sequence (C0HJB3 1-981)": "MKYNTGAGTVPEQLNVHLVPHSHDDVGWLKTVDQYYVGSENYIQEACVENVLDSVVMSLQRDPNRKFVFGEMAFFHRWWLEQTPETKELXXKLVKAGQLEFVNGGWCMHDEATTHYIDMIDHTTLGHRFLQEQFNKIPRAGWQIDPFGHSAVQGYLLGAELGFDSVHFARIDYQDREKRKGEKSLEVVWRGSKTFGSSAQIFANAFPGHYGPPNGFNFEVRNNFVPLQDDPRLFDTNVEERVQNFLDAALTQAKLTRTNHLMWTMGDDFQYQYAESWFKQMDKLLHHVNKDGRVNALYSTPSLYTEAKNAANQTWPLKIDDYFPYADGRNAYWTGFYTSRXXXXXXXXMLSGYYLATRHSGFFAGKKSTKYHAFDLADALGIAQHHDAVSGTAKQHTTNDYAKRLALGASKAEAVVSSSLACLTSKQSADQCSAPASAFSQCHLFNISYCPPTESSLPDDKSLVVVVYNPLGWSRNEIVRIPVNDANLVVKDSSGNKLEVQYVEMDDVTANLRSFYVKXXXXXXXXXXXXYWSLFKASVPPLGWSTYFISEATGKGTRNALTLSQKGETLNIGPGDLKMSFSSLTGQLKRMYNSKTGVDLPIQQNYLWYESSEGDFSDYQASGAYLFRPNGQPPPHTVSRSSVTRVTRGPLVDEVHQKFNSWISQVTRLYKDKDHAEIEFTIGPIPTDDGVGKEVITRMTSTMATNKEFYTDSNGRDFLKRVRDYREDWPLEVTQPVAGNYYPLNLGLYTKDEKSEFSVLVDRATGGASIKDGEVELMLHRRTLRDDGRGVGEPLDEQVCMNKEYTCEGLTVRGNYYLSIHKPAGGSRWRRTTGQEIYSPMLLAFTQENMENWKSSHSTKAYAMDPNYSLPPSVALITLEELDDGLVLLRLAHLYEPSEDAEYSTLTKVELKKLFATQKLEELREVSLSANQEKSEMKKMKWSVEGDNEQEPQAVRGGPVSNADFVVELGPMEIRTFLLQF", "settings": "α-mannosidase from jack beans, pH 5.6; cited from earlier work"}, "[3]": {"target": "β-glucosidase", "settings": "cited from earlier work"}, "[4]": {"target": "T3, α-galactosidase (Coffea arabica, UniProt Q42656)", "T3 sequence (Q42656 16-378)": "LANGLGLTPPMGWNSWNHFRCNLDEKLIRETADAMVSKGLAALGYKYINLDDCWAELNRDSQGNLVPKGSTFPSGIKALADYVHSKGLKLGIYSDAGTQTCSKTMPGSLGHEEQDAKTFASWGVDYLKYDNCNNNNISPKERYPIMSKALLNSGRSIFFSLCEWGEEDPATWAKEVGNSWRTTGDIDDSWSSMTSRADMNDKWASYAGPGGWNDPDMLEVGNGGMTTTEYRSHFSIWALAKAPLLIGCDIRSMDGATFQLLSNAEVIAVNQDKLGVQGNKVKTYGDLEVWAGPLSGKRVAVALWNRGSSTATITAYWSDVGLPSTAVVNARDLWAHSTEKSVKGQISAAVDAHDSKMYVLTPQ", "parameters": "key to inhibition: NI = no inhibition", "settings": "α-galactosidase from green coffee beans, pH 6.8; cited from earlier work"}, "[5]": {"target": "β-galactosidase (Escherichia coli, UniProt P00722)", "sequence (P00722 2-1024 limits assumed)": "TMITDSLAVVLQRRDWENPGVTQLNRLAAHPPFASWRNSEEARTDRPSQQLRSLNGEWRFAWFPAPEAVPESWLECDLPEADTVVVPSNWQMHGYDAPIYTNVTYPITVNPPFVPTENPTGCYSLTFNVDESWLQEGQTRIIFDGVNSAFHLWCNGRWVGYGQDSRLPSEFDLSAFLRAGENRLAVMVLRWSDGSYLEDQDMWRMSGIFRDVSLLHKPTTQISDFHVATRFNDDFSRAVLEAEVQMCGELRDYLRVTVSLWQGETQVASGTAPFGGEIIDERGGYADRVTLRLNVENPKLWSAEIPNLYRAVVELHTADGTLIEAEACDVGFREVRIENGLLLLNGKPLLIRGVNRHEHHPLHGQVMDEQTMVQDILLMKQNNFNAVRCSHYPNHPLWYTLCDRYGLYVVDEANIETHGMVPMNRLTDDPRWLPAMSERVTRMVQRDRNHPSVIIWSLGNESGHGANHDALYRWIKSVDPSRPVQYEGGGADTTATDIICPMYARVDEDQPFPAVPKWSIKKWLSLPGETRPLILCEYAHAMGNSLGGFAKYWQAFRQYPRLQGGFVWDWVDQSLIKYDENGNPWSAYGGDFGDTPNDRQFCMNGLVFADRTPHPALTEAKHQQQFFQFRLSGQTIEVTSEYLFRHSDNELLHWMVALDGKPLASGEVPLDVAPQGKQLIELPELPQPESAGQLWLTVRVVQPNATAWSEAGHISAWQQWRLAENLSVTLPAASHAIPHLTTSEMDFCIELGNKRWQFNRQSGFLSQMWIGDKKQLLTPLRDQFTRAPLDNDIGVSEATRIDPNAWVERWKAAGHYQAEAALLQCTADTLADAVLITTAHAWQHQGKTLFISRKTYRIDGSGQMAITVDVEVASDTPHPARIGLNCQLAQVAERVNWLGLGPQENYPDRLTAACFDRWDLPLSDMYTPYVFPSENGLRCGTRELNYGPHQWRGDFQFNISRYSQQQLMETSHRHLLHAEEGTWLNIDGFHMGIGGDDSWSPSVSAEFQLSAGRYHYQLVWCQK", "assay": "glycosidase inhibition, β-galactosidase (Escherichia coli)", "type": "biochemical", "excerpt": "(§1) The glycosidase inhibitory activities (IC50 (µM)) of amidines 5 and 6 on a panel of six glycosidases are presented in table 1 and compared with structurally related isofagomine (3) and amidine 4."}, "[6]": {"target": "T2, α-mannosidase", "assay": "glycosidase inhibition, α-mannosidase", "type": "biochemical", "settings": "α-mannosidase from jack beans, pH 5.6", "excerpt": "as §1"}, "[7]": {"target": "β-glucosidase", "assay": "glycosidase inhibition, β-glucosidase", "type": "biochemical", "settings": "β-glucosidase from almonds, pH 6.8", "excerpt": "as §1"}, "[8]": {"target": "T1, β-galactosidase", "assay": "glycosidase inhibition, β-galactosidase (Aspergillus oryzae)", "type": "biochemical", "excerpt": "as §1"}, "[9]": {"assay": "pKa determination by NMR titration in D2O", "type": "physicochemical", "settings": "for pKa: D2O; for pH* at which degradation started: during NMR titration in D2O", "excerpt": "The pKa values for azasugars have been determined by NMR spectroscopy in other studies. This methodology was also applied in this study to determine the pKa value of 6. […] The sigmoidal curve is missing points at high pH* values (greater than 11) because 6 started degrading at roughly pH* 10.5. Recording of both a ^1H NMR and ^13C HSQC spectra at each titration point allowed us to track the changes in chemical shifts at pH levels higher than where the degradation initially started. The pKa of amidine 5 was determined at even lower accuracy than for 6, because it started degrading at roughly pH* 9.4, where there is no indication of 5 being deprotonated."}, "[10]": {"target": "α-glucosidase", "assay": "glycosidase inhibition, α-glucosidase", "type": "biochemical", "settings": "α-glucosidase from Saccharomyces cerevisiae, pH 6.8", "excerpt": "as §1"}, "[11]": {"target": "T3, α-galactosidase", "assay": "glycosidase inhibition, α-galactosidase", "type": "biochemical", "excerpt": "as §1"}, "[12]": {"test_system": "all tested enzymes (panel of six glycosidases)", "assay": "glycosidase inhibition, whole panel of six glycosidases", "type": "biochemical", "settings": "for glycosidase inhibition in words: all enzymes in the panel", "excerpt": "as §1"}, "[13]": {"settings": "cited from earlier work"}, "[14]": {"settings": "β-glucosidase from almonds, pH 6.8"}},
  "note": "Like-named read-outs stand apart in the source and are kept apart here.",
  "data": [
    {"compound": "OC[C@H]1CNC[C@@H](O)[C@@H]1O", "note": "[compound 3, isofagomine]", "values": [
      {"measurement": "IC50", "setting": "[1]", "result": 270, "unit": "µM"},
      {"measurement": "IC50", "setting": "[2]", "result": 250, "unit": "µM"},
      {"measurement": "Ki", "setting": "[3]; almond β-glucosidase", "result": 0.11, "unit": "µM"},
      {"measurement": "Ki", "setting": "[3]; [14]", "result": 0.11, "unit": "µM"},
      {"measurement": "IC50", "setting": "[4]", "result": "> 2000", "unit": "µM"}
    ]},
    {"compound": "N=C1NC[C@H](CO)[C@@H](O)[C@@H]1O", "note": "[compound 4]", "values": [
      {"measurement": "Ki", "setting": "[1]", "result": 17400, "unit": "µM"},
      {"measurement": "Ki", "setting": "[2]", "result": 0.75, "unit": "µM"},
      {"measurement": "Ki", "setting": "[3]; [14]", "result": 450, "unit": "µM"},
      {"measurement": "inhibition", "setting": "[4]", "result": "NI^g,i"}
    ]},
    {"compound": "N=C1[C@H](CO)[C@@H](O)[C@H](O)CN1Cc1ccccc1", "note": "[compound 6]", "values": [
      {"measurement": "IC50", "setting": "[5]", "result": "> 50", "unit": "µM"},
      {"measurement": "IC50", "setting": "[6]", "result": "> 50", "unit": "µM"},
      {"measurement": "IC50", "setting": "[7]", "result": "> 50", "unit": "µM"},
      {"measurement": "IC50", "setting": "[8]", "result": "> 50", "unit": "µM"},
      {"measurement": "pKa", "setting": "[9]; inflection point of 2-Ha chemical shift versus pH* (pH measured in D2O), read-out: pKa*", "result": "> 11"},
      {"measurement": "pKa", "setting": "[9]; pKa* corrected with a correction factor, read-out: pKa (corrected)", "result": "> 10.6"},
      {"measurement": "pH* at which degradation started", "setting": "[9]", "result": "~10.5"},
      {"measurement": "IC50", "setting": "[10]", "result": "> 50", "unit": "µM"},
      {"measurement": "IC50", "setting": "[11]", "result": "> 50", "unit": "µM"},
      {"measurement": "glycosidase inhibition in words", "setting": "[12]", "result": "very weak inhibitor"}
    ]},
    {"compound": "N=C1NC[C@@H](O)[C@H](O)[C@H]1CO", "note": "[compound 5]", "values": [
      {"measurement": "IC50", "setting": "[5]; β-galactosidase from Escherichia coli, pH 6.8, read-out: IC50", "result": "> 50", "unit": "µM"},
      {"measurement": "IC50", "setting": "[6]", "result": "> 50", "unit": "µM"},
      {"measurement": "IC50", "setting": "[7]", "result": "> 50", "unit": "µM"},
      {"measurement": "IC50", "setting": "[8]; β-galactosidase from Aspergillus oryzae, pH 6.8, read-out: IC50", "result": "> 50", "unit": "µM"},
      {"measurement": "pH* at which degradation started", "setting": "[9]", "result": "~9.4"},
      {"measurement": "IC50", "setting": "[10]", "result": "> 50", "unit": "µM"},
      {"measurement": "IC50", "setting": "[11]; α-galactosidase from green coffee beans, pH 6.8, read-out: IC50", "result": "> 50", "unit": "µM"},
      {"measurement": "glycosidase inhibition in words", "setting": "[12]", "result": "very poor inhibitor"},
      {"measurement": "IC50", "setting": "[12]; all tested enzymes, read-out: IC50 against all tested enzymes", "result": "> 50", "unit": "µM"}
    ]},
    {"compound": "NC1=N[C@H](CO)[C@@H](O)[C@H](O)[C@H]1O", "note": "[compound 2, ᴅ-glucoamidine]", "values": [
      {"measurement": "pKa", "setting": "[13]", "result": "≥ 10.5"},
      {"measurement": "fold stronger base than 1", "setting": "[13]; compared with 1-deoxynojirimycin (1)", "result": "roughly 7900 fold"}
    ]}
  ]
}
